Structures can show the parent of a compound that is named as a salt.
Key:
SMOX [1] = biological target: T1, SMOX (Homo sapiens (Human), UniProt Q9NWM0); assay: Human SMOX assay (HyPerBlu chemiluminescent detection of hydrogen peroxide); format: biochemical; conditions: 2.5 nM full length hSMOX, spermine substrate, 1 h at room temperature, luminescence read; read-out: SMOx_IC50
Procedure, shortened: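 Full-length N-His human SMOX (2.5 nM, E. coli-expressed) was incubated 1 h at room temperature with 30 µM spermine, 11-point compound dilutions and 1.25% DMSO in pH 7.4 HEPES/NaCl/EGTA buffer. H2O2 was detected by HyPerBlu chemiluminescence after 30 min, and IC50 came from dose–response fits.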

hPAOX = hPAOX (Homo sapiens (Human), UniProt Q6QHF9); assay: Human PAOX assay (HyPerBlu chemiluminescent detection of hydrogen peroxide); format: biochemical; conditions: 60 pM recombinant PAOX, 20 μM N-acetylspermine substrate
Procedure, shortened: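 His-tagged recombinant PAOX expressed in sf9 insect cells was used at 60 pM, with 20 μM N-acetylspermine as substrate. Hydrogen peroxide formed by the reaction was detected by chemiluminescence from a boronate probe (HyPerBlu). Inhibition appears as lower luminescence.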

SMOX [2] = biological target: T1, SMOX; assay: Cellular Thermal Shift Assay (CETSA) with alphaLISA detection of intact SMOX in A549 cells; format: cell-based; conditions: 1 hour compound incubation at 37° C., heated to 55° C. for 5 minutes
Text: The Cellular Thermal Shift Assay (CETSA) is a biophysical assay based on the principle of ligand-induced thermal stabilization of target proteins, meaning that a protein denaturing temperature will change upon ligand interaction. Thus, by heating samples (i.e. cells, ex vivo samples) to different temperatures, and quantifying conformationally intact proteins we can detect compound-protein interactions after compound treatment. CETSA allows direct monitoring of ligand binding to a specific target (target engagement). In our study, we have developed a suitable detection system that will detect intact SMOX using the alphaLISA. […] The detection of compound -SMOX ligand binding is performed using A549 cells. This adenocarcinoma human alveolar basal epithelial cell line expresses high levels of SMOX. Their use has been widely reported in the literature with respect to the investigation of the SMOX pathway. Using SMOX high-expressing cells with CETSA and alphaLISA systems provides the optimal platform for screening small molecules for SMOX inhibition.
A549 cells were seeded at a density of 0.05-0.1×10^6 cells/mL in T175 flasks and cultured in 25 mL of culture medium consisting in RPMI 1640 medium (Gibco) supplemented with 10% fetal bovine serum (Gibco). Cells were passaged twice per week and used for CETSA assays before reaching confluency. One day prior to the CETSA cells were seeded in 384-well white assay plates (Corning) at 15000 cells per well. Briefly, cells were washed with PBS (Life Technologies Europe BV) and dissociated by adding 2 mL TrypLE™ Select (Life Technologies Europe BV). After 5 min at 37° C., cells were resuspended in culture medium, counted using a ViCell XR cell counter (ViCell) and seeded in the 384-well plates.
Compounds were pre-diluted in PBS to a final concentration of […] and 1% DMSO and serially diluted in PBS 1% DMSO. For compound-cell incubation, medium in the 384 well plates was replaced with 30 μL of serially diluted compounds. After incubation at 37° C. for 1 hour the liquid was removed and plates were heated to 55° C. for 5 minutes and then transferred to ice for 5 minutes. After the cooling step, cells were lysed by adding 15 μL 1× alphaLISA-buffer (Perkin Elmer) containing anti-SMOX monoclonal antibody #2 and anti-SMOX Fab-fragment #33 mixture at a concentration of 5 and 0.5 nM respectively. After one hour at RT, 5 μL anti-6×His alphaLISA acceptor beads (50 mg/L, AL128C, Perkin Elmer) were added to the wells followed by an additional incubation of one hour at RT. Then 5 μL anti-rabbit IgG alpha donor beads (200 mg/L was added to the wells. After one hour incubation at RT the alpha signal was read using an alpha compatible reader. MDL75257 (M2949, Sigma) was used as positive control for compound-SMOX interaction. Compound-SMOX interaction is detected through the comparison of the high alpha signal of the negative control with the much lower signal of the wells that contain SMOX binding compounds.

[3] = animal cancer models; cited from earlier work
[4] = associated disease models; cited from earlier work

T1 sequence (Q9NWM0 whole entry): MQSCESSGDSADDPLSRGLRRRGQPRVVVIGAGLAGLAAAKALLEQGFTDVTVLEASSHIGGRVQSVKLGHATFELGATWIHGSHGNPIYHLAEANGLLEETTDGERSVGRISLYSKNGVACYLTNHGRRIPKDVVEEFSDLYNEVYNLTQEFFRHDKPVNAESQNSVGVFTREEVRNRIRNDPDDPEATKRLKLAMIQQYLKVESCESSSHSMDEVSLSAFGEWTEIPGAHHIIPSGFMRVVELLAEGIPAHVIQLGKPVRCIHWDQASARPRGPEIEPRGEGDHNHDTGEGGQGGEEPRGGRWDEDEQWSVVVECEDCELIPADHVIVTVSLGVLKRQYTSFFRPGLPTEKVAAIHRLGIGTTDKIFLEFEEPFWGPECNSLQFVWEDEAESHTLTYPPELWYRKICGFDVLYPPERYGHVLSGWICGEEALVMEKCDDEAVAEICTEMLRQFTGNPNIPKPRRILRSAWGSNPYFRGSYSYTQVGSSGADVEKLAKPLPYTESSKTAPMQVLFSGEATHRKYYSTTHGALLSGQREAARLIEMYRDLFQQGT
Chain of hPAOX (Q6QHF9 whole entry): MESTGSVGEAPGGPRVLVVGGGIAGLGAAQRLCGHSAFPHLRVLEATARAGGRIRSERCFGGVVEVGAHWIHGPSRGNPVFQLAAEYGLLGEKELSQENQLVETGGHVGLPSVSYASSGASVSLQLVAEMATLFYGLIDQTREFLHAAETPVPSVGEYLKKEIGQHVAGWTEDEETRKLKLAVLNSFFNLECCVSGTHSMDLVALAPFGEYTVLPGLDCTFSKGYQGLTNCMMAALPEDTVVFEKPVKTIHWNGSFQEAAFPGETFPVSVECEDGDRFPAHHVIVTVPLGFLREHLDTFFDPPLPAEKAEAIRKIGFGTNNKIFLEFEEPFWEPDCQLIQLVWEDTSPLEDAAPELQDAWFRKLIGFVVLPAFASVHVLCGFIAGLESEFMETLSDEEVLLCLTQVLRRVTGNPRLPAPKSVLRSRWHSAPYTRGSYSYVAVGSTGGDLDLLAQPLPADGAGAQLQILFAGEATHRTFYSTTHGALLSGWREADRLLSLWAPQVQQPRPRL

Row | IC50 (SMOX [1]) [µM] | IC50 (hPAOX) [µM] | SMOx % recovery CETSA (SMOX [2]) [%] | Structure (SMILES) | cancer incidence [3] | neuronal death and retinal degeneration [4]
1 | 0.065 | 0.306 | 10 | O=C(NCC1CCc2nccn2C1)c1cc2nc(-c3ccccc3)cc(-c3ccccc3)n2n1 (centres unmarked) [Example 20, 5,7-Diphenyl-N-((5,6,7,8-tetrahydroimidazo[1,2-a]pyridin-6-yl)methyl)pyrazolo[1,5-a]pyrimidine-2-carboxamide] | – | –
2 | 0.024 | 2.19 | 40 | O=C(NCCCn1ccnc1)c1cc2nc(-c3ccccc3)cc(-c3ccc(F)cc3)n2n1 [Example 86, N-(3-(1H-imidazol-1-yl)propyl)-7-(4-fluorophenyl)-5-phenylpyrazolo[1,5-a]pyrimidine-2-carboxamide] | – | –
3 | 0.024 | 6.85 | 29 | O=C(NCCCn1ccnc1)c1cc2nc(-c3ccccc3)cc(N3CCCCC3)n2n1 [Example 58, N-(3-(1H-Imidazol-1-yl)propyl)-5-phenyl-7-(piperidin-1-yl)pyrazolo[1,5-a]pyrimidine-2-carboxamide] | – | –
4 | 0.161 | 0.68 | 0 | CN(C)CCCNC(=O)c1cc2nc(-c3ccccc3)cc(-c3ccccc3)n2n1 [Example 18, N-(3-(Dimethylamino)propyl)-5,7-diphenylpyrazolo[1,5-a]pyrimidine-2-carboxamide] | – | –
5 | 0.046 | 0.397 | 12 | Cn1ccnc1CCCNC(=O)c1cc2nc(-c3ccccc3)cc(-c3ccccc3)n2n1 [Example 1, N-(3-(1-Methyl-1H-imidazol-2-yl)propyl)-5,7-diphenylpyrazolo[1,5-a]pyrimidine-2-carboxamide] | – | –
6 | 0.01 | 0.739 | 74 | O=C(NCCCn1ccnc1)c1cc2nc(-c3ccccc3)cc(-c3ccccc3)n2n1 [Example 43, N-(3-(1H-Imidazol-1-yl)propyl)-5,7-diphenylpyrazolo[1,5-a]pyrimidine-2-carboxamide] | – | –
7 | 0.176 | 4.44 | 1 | CC(C)Nc1cc(-c2ccccc2)nc2cc(C(=O)NCCCn3ccnc3)nn12 [Example 57, N-(3-(1H-Imidazol-1-yl)propyl)-7-(isopropylamino)-5-phenylpyrazolo[1,5-a]pyrimidine-2-carboxamide] | – | –
8 | 0.015 | 0.049 | 43 | O=C(NCCCc1c[nH]cn1)c1cc2nc(-c3ccccc3)cc(-c3ccccc3)n2n1 [Example 27, N-(3-(1H-Imidazol-4-yl)propyl)-5,7-diphenylpyrazolo[1,5-a]pyrimidine-2-carboxamide] | – | –
9 | 0.192 | 6.32 | 4 | CCN1CCC[C@@H]1CNC(=O)c1cc2nc(-c3ccccc3)cc(-c3ccccc3)n2n1 [Example 15, (R)—N-((1-Ethylpyrrolidin-2-yl)methyl)-5,7-diphenylpyrazolo[1,5-a]pyrimidine-2-carboxamide] | – | –
10 | 0.241 | 2.33 | 6 | O=C(NCCCn1ccnc1)c1cc2nc(-c3ccccc3)cc(N3CCC(F)CC3)n2n1 [Example 63, N-(3-(1H-Imidazol-1-yl)propyl)-7-(4-fluoropiperidin-1-yl)-5-phenylpyrazolo[1,5-a]pyrimidine-2-carboxamide] | – | –
11 | – | – | – | C=C=CCNCCCCNCC=C=C.Cl.Cl [MDL 72527, N^1,N^4-di-2,3-butadienyl-1,4-butanediamine dihydrochloride] | significantly reduced cancer incidence | reduced neuronal death and retinal degeneration
12 | 0.117 | 8.61 | 2 | CN1CCC(C)(CNC(=O)c2cc3nc(-c4ccccc4)cc(-c4ccccc4)n3n2)C1 (centres unmarked) [Example 21, N-((1,3-Dimethylpyrrolidin-3-yl)methyl)-5,7-diphenylpyrazolo[1,5-a]pyrimidine-2-carboxamide] | – | –
13 | 0.147 | 5.88 | 39 | CN1CC(NC(=O)c2cc3nc(-c4ccccc4)cc(N4CCCCC4)n3n2)C1 [Example 68, N-(1-methylazetidin-3-yl)-5-phenyl-7-(piperidin-1-yl)pyrazolo[1,5-a]pyrimidine-2-carboxamide trifluoroacetate] | – | –
14 | 0.239 | 0.52 | 20 | CN1CC(NC(=O)c2cc3nc(-c4ccccc4)cc(-c4ccccn4)n3n2)C1 [Example 92, N-(1-methylazetidin-3-yl)-5-phenyl-7-(pyridin-2-yl)pyrazolo[1,5-a]pyrimidine-2-carboxamide] | – | –
15 | 0.036 | 1.41 | 0 | O=C(NCCCn1ccnc1)c1cc2nc(-c3ccccc3)cc(-c3cccc(F)c3)n2n1 [Example 78, N-(3-(1H-imidazol-1-yl)propyl)-7-(3-fluorophenyl)-5-phenylpyrazolo[1,5-a]pyrimidine-2-carboxamide] | – | –
16 | 0.158 | 0.307 | 2 | CN1CCC(CNC(=O)c2cc3nc(-c4ccccc4)cc(-c4ccccc4)n3n2)C1 (centres unmarked) [Example 19, N-((1-Methylpyrrolidin-3-yl)methyl)-5,7-diphenylpyrazolo[1,5-a]pyrimidine-2-carboxamide] | – | –
17 | 0.231 | 0.233 | 0 | O=C(NCCn1ccnc1)c1cc2nc(-c3ccccc3)cc(-c3ccccc3)n2n1 [Example 12, N-(2-(1H-Imidazol-1-yl)ethyl)-5,7-diphenylpyrazolo[1,5-a]pyrimidine-2-carboxamide] | – | –
18 | 0.078 | 1.61 | 3 | N#Cc1ccc(-c2cc(-c3ccccc3)nc3cc(C(=O)NCCCn4ccnc4)nn23)cc1 [Example 90, N-(3-(1H-imidazol-1-yl)propyl)-7-(4-cyanophenyl)-5-phenylpyrazolo[1,5-a]pyrimidine-2-carboxamide] | – | –
19 | 0.049 | 6.04 | 87 | O=C(NCCCn1ccnc1)c1cc2nc(-c3ccccc3)cc(N3CCCC(F)C3)n2n1 (centres unmarked) [Example 62, N-(3-(1H-Imidazol-1-yl)propyl)-7-(3-fluoropiperidin-1-yl)-5-phenylpyrazolo[1,5-a]pyrimidine-2-carboxamide] | – | –
20 | 0.159 | 0.879 | 0 | N#Cc1cccc(-c2cc(-c3ccccc3)nc3cc(C(=O)NCCCn4ccnc4)nn23)c1 [Example 89, N-(3-(1H-imidazol-1-yl)propyl)-7-(3-cyanophenyl)-5-phenylpyrazolo[1,5-a]pyrimidine-2-carboxamide] | – | –
21 | 0.043 | 2.05 | 111 | O=C(NCCCn1ccnc1)c1cc2nc(-c3ccccc3)cc(-c3ccccn3)n2n1 [Example 91, N-(3-(1H-imidazol-1-yl)propyl)-5-phenyl-7-(pyridin-2-yl)pyrazolo[1,5-a]pyrimidine-2-carboxamide] | – | –
22 | 0.045 | 0.942 | 26 | Cc1nccn1CCCNC(=O)c1cc2nc(-c3ccccc3)cc(-c3ccccc3)n2n1 [Example 2, N-(3-(2-Methyl-1H-imidazol-1-yl)propyl)-5,7-diphenylpyrazolo[1,5-a]pyrimidine-2-carboxamide] | – | –
